Reference: patent US8871713B2, “Formulations of growth hormone releasing factor (GRF) molecules with improved stability” (Theratechnologies Inc., priority 2013, dated 2014)
Entries after “also recorded” stand apart in the source; their conditions may differ. *1 amine or outer side, *2 acyl side, *3 side chain or, on linkers, in order; H or OH if unused. [ ]: non-standard residue; d: D form. The star is where a group is joined. βAsp = O=C(O)[C@H](CC(=O)[*:2])N[*:1]; Hexenoyl(3E) = CC/C=C/CC(=O)*

Columns and labels:
GH secretion = assay: GH response in female Sprague-Dawley rats (plasma GH ELISA); format: in vivo, rat; conditions: for GH secretion in rats (in words) / AUC(0-60min) of GH / TMAX of GH / AUC(0-60 min) of GH, fold lower than TH9507 / Cmax of GH, fold lower than TH9507: female rats; for GH secretion in rats (in words) / AUC(0-60 min) of GH, fold lower than TH9507 / Cmax of GH, fold lower than TH9507: 10 μg/rat; for AUC(0-60min) of GH / TMAX of GH: 10 μg/rat subcutaneous, 5% mannitol
Procedure: The reporter gene assay was performed on baby hamster kidney (BHK) cells stably expressing the human GRF receptor and a cAMP-inducible alkaline phosphatase reporter gene; the peptides were tested at concentrations from 1 pM to 10 μM. Acute GH response was measured in blood samples obtained from female rats that were injected with 10 μg/rat peptides in 5% mannitol.
Sprague-Dawley rats (female, 250-300 g) were obtained from Charles River Inc. The animals were kept in groups of 4 rats per cage and were maintained on standard laboratory chow in 12:12 light:dark cycle.
On the day of the experiment, the animals were anesthetized with 2.5% isoflurane. A mid-section opening was made in the neck to expose the carotid artery. The carotid artery was cannulated with polypropylene tube (PE-50) for blood withdrawal. The rats were subcutaneously injected with the peptides (10 μg/rat) dissolved in formulation 5 (20 mM Sodium Acetate, 5% D-mannitol pH 5 (adjusted with AcOH). Blood samples (400 μL) were collected at pre-dose and at 5, 10, 15, 30 and 60 minutes after the injection into microtainer tubes containing K3EDTA and 25 μl of acidified Hank's buffered salt solution (AHBSS). The samples were immediately centrifuged in a microfuge for 2 minutes and the plasma was collected into screwcap Eppendorf™ tubes and quickly frozen in liquid nitrogen. The samples were kept at −80° C.
Rat plasma samples were thawed on ice, vortexed briefly to mix the contents and centrifuged at 9,000 RPM for 2 min at 4° C. GH levels were determined using the Rat/Mouse Growth Hormone ELISA kit from Millipore® (Cat. #EZRMGH-45K). Samples were diluted 10-fold with the assay buffer and 10 μl of the diluted samples were added along with 90 μl of assay buffer to the ELISA plate. The remainder of the assay was performed according to the manufacturer's protocol.
The standard curve was plotted using the 4-parameter logistic equation using GraphPad Prism™ software and was used to determine the GH concentration of plasma samples. The data were analyzed using one-way analysis of variance. Bonferroni's test was used to make comparisons among different treatments.

human GRF receptor = target: T1, human GRF receptor (Homo sapiens, UniProt Q02643); assay: Reporter gene assay in BHK cells (cAMP-inducible alkaline phosphatase); format: cell-based; conditions: for Emax / SNR (signal to noise ratio) / EC50: 24 h; for EC50: peptides 10^-5 M to 10^-12 M
T1 construct: expressed in transfected cells
T1 sequence (Q02643 23-423): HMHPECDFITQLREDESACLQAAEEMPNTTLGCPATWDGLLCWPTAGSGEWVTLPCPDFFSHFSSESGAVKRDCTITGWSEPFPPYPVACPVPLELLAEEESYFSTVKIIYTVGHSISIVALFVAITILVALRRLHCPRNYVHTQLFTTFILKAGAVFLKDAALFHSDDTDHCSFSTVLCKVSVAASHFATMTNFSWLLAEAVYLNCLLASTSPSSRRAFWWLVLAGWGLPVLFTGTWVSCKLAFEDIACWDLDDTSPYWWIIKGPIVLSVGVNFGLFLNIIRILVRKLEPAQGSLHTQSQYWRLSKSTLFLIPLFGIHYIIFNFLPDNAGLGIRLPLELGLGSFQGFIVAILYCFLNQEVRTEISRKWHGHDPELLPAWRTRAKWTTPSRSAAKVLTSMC
Procedure: BHK cells stably transfected with the human GRF receptor and an alkaline phosphatase reporter gene were plated in 96-well plates at 5×10^4 cells/well and incubated overnight. The next day, cells were washed twice with PBS and maintained for 10-30 min. in assay buffer (DMEM without phenol red, 20 mM HEPES and 1% heat-inactivated fetal bovine serum (FBS)). Peptides from 10^−5 M to 10^−12 M were added to the cells and incubated for 24 h. The alkaline phosphatase level in the culture supernatants were performed using the Alkaline Phosphatase detection kit from Invitrogen® (cat. #T1017).

[1] = Formation of TH0601 from TH05111 or tesamorelin with and without HP-β-CD (FIG. 19); format: physicochemical; conditions: 8 mg/mL peptide, 10% HP-β-CD vs 5% mannitol, pH 6
Procedure: Isomerization of Asp^8 in the structure of TH05111 leads to formation of the tesamorelin degradant TH0601, which makes it possible to monitor degradation by using the same chromatographic conditions as for tesamorelin.
The comparison of the kinetics of TH0601 formation in the solutions containing 8 mg/mL of TH05111 or tesamorelin with and without HP-β-CD is shown in FIG. 19.

Molecule	GH secretion in rats (in words) (GH secretion)	AUC(0-60min) of GH (GH secretion) [ng·min/mL]	TMAX of GH (GH secretion) [min]	In vitro potency compared to TH9507 (in words) (human GRF receptor)	Emax (human GRF receptor) [%]	SNR (signal to noise ratio) (human GRF receptor)	AUC(0-60 min) of GH, fold lower than TH9507 (GH secretion) [fold]	Cmax of GH, fold lower than TH9507 (GH secretion) [fold]	GH-releasing activity in vivo compared to parent molecule (GH secretion; relative to tesamorelin, FIG. 1) [%]	Isomerization of the Asp^8 residue in the presence of HP-β-CD [1]	EC50 (human GRF receptor) [nM]	EC50 fold higher than TH9507 (human GRF receptor) [fold]
CC/C=C/CC(=O)N[C@@H](Cc1ccc(O)cc1)C(=O)N[C@@H](C)C(=O)N[C@@H](CC(=O)O)C(=O)N[C@@H](C)C(=O)N[C@H](C(=O)N[C@@H](Cc1ccccc1)C(=O)N[C@H](C(=O)N[C@@H](CC(N)=O)C(=O)N[C@@H](CO)C(=O)N[C@@H](Cc1ccc(O)cc1)C(=O)N[C@@H](CCCNC(=N)N)C(=O)N[C@@H](CCCCN)C(=O)N[C@H](C(=O)N[C@@H](CC(C)C)C(=O)NCC(=O)N[C@@H](CCC(N)=O)C(=O)N[C@@H](CC(C)C)C(=O)N[C@@H](CO)C(=O)N[C@@H](C)C(=O)N[C@@H](CCCNC(=N)N)C(=O)N[C@@H](CCCCN)C(=O)N[C@@H](CC(C)C)C(=O)N[C@@H](CC(C)C)C(=O)N[C@@H](CCC(N)=O)C(=O)N[C@@H](CC(=O)O)C(=O)N[C@H](C(=O)N[C@@H](CC[S+](C)[O-])C(=O)N[C@@H](CO)C(=O)N[C@@H](CCCNC(=N)N)C(=O)N[C@@H](CCC(N)=O)C(=O)N[C@@H](CCC(N)=O)C(=O)NCC(=O)N[C@@H](CCC(=O)O)C(=O)N[C@@H](CO)C(=O)N[C@@H](CC(N)=O)C(=O)N[C@@H](CCC(N)=O)C(=O)N[C@@H](CCC(=O)O)C(=O)N[C@@H](CCCNC(=N)N)C(=O)NCC(=O)N[C@@H](C)C(=O)N[C@@H](CCCNC(=N)N)C(=O)N[C@@H](C)C(=O)N[C@@H](CCCNC(=N)N)C(=O)N[C@@H](CC(C)C)C(N)=O)[C@@H](C)CC)C(C)C)[C@@H](C)O)[C@@H](C)CC (some centres unmarked) [TH0286, N-Hex-hGRF[1-44]Met[O]27 amide]	not significantly different	14751 ± 5745	10	comparable to TH9507								
CC/C=C/CC(=O)N[C@@H](Cc1ccc(O)cc1)C(=O)N[C@@H](C)C(=O)N[C@@H](CC(=O)O)C(=O)N[C@@H](C)C(=O)N[C@H](C(=O)N[C@@H](Cc1ccccc1)C(=O)N[C@H](C(=O)N[C@@H](CC(N)=O)C(=O)N[C@@H](CO)C(=O)N[C@@H](Cc1ccc(O)cc1)C(=O)N[C@@H](CCCNC(=N)N)C(=O)N[C@@H](CCCCN)C(=O)N[C@H](C(=O)N[C@@H](CC(C)C)C(=O)NCC(=O)N[C@@H](CCC(N)=O)C(=O)N[C@@H](CC(C)C)C(=O)N[C@@H](CO)C(=O)N[C@@H](C)C(=O)N[C@@H](CCCNC(=N)N)C(=O)N[C@@H](CCCCN)C(=O)N[C@@H](CC(C)C)C(=O)N[C@@H](CC(C)C)C(=O)N[C@@H](CCC(N)=O)C(=O)N[C@@H](CC(=O)O)C(=O)N[C@H](C(=O)N[C@@H](CCSC)C(=O)N[C@@H](CO)C(=O)N[C@@H](CCCNC(=N)N)C(=O)N[C@@H](CCC(N)=O)C(=O)N[C@@H](CCC(N)=O)C(=O)NCC(=O)N[C@@H](CCC(=O)O)C(=O)N[C@@H](CO)C(=O)N[C@@H](CC(N)=O)C(=O)N[C@@H](CCC(N)=O)C(=O)N[C@@H](CCC(=O)O)C(=O)N[C@@H](CCCNC(=N)N)C(=O)NCC(=O)N[C@@H](C)C(=O)N[C@@H](CCCNC(=N)N)C(=O)N[C@@H](C)C(=O)N[C@@H](CCCNC(=N)N)C(=O)N[C@@H](CC(C)C)C(N)=O)[C@@H](C)CC)C(C)C)[C@@H](C)O)[C@@H](C)CC [TH9507, [trans-3-hexenoyl]hGRF (1-44) amide]		18953 ± 6317	10		100 ± 11.3	22.3						
{Hexenoyl(3E)}-YADAIFTDSYRKVLGQLSARKLLQDIMSRQQGESNQERGARARL-NH2 [TH05111, Asp^8 tesamorelin]		6540 ± 2647	5	comparable to TH9507; also recorded: equipotent	114 ± 17	25.3	2.9	2.2	~30	facilitated	0.08 ± 0.02	
CC/C=C/CC(=O)N[C@@H](Cc1ccc(O)cc1)C(=O)N[C@@H](C)C(=O)N[C@@H](CC(=O)N[C@@H](C)C(=O)N[C@H](C(=O)N[C@@H](Cc1ccccc1)C(=O)N[C@H](C(=O)N[C@@H](CC(N)=O)C(=O)N[C@@H](CO)C(=O)N[C@@H](Cc1ccc(O)cc1)C(=O)N[C@@H](CCCNC(=N)N)C(=O)N[C@@H](CCCCN)C(=O)N[C@H](C(=O)N[C@@H](CC(C)C)C(=O)NCC(=O)N[C@@H](CCC(N)=O)C(=O)N[C@@H](CC(C)C)C(=O)N[C@@H](CO)C(=O)N[C@@H](C)C(=O)N[C@@H](CCCNC(=N)N)C(=O)N[C@@H](CCCCN)C(=O)N[C@@H](CC(C)C)C(=O)N[C@@H](CC(C)C)C(=O)N[C@@H](CCC(N)=O)C(=O)N[C@@H](CC(=O)O)C(=O)N[C@H](C(=O)N[C@@H](CCSC)C(=O)N[C@@H](CO)C(=O)N[C@@H](CCCNC(=N)N)C(=O)N[C@@H](CCC(N)=O)C(=O)N[C@@H](CCC(N)=O)C(=O)NCC(=O)N[C@@H](CCC(=O)O)C(=O)N[C@@H](CO)C(=O)N[C@@H](CC(N)=O)C(=O)N[C@@H](CCC(N)=O)C(=O)N[C@@H](CCC(=O)O)C(=O)N[C@@H](CCCNC(=N)N)C(=O)NCC(=O)N[C@@H](C)C(=O)N[C@@H](CCCNC(=N)N)C(=O)N[C@@H](C)C(=O)N[C@@H](CCCNC(=N)N)C(=O)N[C@@H](CC(C)C)C(N)=O)[C@@H](C)CC)C(C)C)[C@@H](C)O)[C@@H](C)CC)C(=O)O [TH0677, β-Asp^3 tesamorelin]	did not produce GH; also recorded: did not stimulate GH secretion; also recorded: biologically inactive				116 ± 25.8	25.9						71
{Hexenoyl(3E)}-YADAIFT[βAsp]SYRKVLGQLSARKLLQDIMSRQQGESNQERGARARL-NH2 [TH0601, β-Asp^8 tesamorelin]	biologically inactive	1533 ± 734	5		120 ± 23.5	26.9	12.4	14.0			30 ± 30.4	500
CC/C=C/CC(=O)N[C@@H](Cc1ccc(O)cc1)C(=O)N[C@@H](C)C(=O)N[C@H]1CC(=O)N([C@@H](C)C(=O)N[C@H](C(=O)N[C@@H](Cc2ccccc2)C(=O)N[C@H](C(=O)N[C@@H](CC(N)=O)C(=O)N[C@@H](CO)C(=O)N[C@@H](Cc2ccc(O)cc2)C(=O)N[C@@H](CCCNC(=N)N)C(=O)N[C@@H](CCCCN)C(=O)N[C@H](C(=O)N[C@@H](CC(C)C)C(=O)NCC(=O)N[C@@H](CCC(N)=O)C(=O)N[C@@H](CC(C)C)C(=O)N[C@@H](CO)C(=O)N[C@@H](C)C(=O)N[C@@H](CCCNC(=N)N)C(=O)N[C@@H](CCCCN)C(=O)N[C@@H](CC(C)C)C(=O)N[C@@H](CC(C)C)C(=O)N[C@@H](CCC(N)=O)C(=O)N[C@@H](CC(=O)O)C(=O)N[C@H](C(=O)N[C@@H](CCSC)C(=O)N[C@@H](CO)C(=O)N[C@@H](CCCNC(=N)N)C(=O)N[C@@H](CCC(N)=O)C(=O)N[C@@H](CCC(N)=O)C(=O)NCC(=O)N[C@@H](CCC(=O)O)C(=O)N[C@@H](CO)C(=O)N[C@@H](CC(N)=O)C(=O)N[C@@H](CCC(N)=O)C(=O)N[C@@H](CCC(=O)O)C(=O)N[C@@H](CCCNC(=N)N)C(=O)NCC(=O)N[C@@H](C)C(=O)N[C@@H](CCCNC(=N)N)C(=O)N[C@@H](C)C(=O)N[C@@H](CCCNC(=N)N)C(=O)N[C@@H](CC(C)C)C(N)=O)[C@@H](C)CC)C(C)C)[C@@H](C)O)[C@@H](C)CC)C1=O [TH1063, Asu^3 tesamorelin]					95.7 ± 8.1							
